Laboratory results from patent publication US20150140089A1 (MetronomX, priority 2012, published 2015).
Several values for one entry are separate records, joined by “and”; a condition that tells them apart may be missing. Equal entries are not always repeated. Where two headings read alike, the source gives them in different places.

What was measured:
[1] = In vitro release (dissolution), USP apparatus II, 5% SDS in 0.1N HCl; assay type: physicochemical; details: 0.1N HCl with 5% SDS; in 24 hr
Method: (§1) At specified time intervals (0.5, 1, 2, 4, 8, 10, and 24 h), 2 ml of sample was collected from each basket and replaced with the same volume of buffer.

[2] = In vitro release (dissolution) using 2% w/v SDS in deionized water; assay type: physicochemical
Method: as §1
Dissolution of each formulation was performed in duplicate.

[3] = 2% w/v SDS in water
[4] = blood level of active compound; cited from earlier work

- Nifurtimox degradation in dissolution samples [1]: about 25%
- instability of Nifurtimox during dissolution (in words) [2]: no significant instability
- Estimated Amount of Nifurtimox ([3]; 25 °C, 0 hr): 344.22 µg/mL
- Estimated Amount of Nifurtimox ([3]; 25 °C, 4 hr): 339.96 µg/mL
- Estimated Amount of Nifurtimox ([3]; 25 °C, 8 hr): 345.38 µg/mL
- Estimated Amount of Nifurtimox ([3]; 25 °C, 12 hr): 346.21 µg/mL
- Estimated Amount of Nifurtimox ([3]; 25 °C, 16 hr): 346.94 µg/mL
- Estimated Amount of Nifurtimox ([3]; 25 °C, 20 hr): 344.92 µg/mL
- Estimated Amount of Nifurtimox ([3]; 25 °C, 24 hr): 341.80 µg/mL
- Estimated Amount of Nifurtimox ([3]; 37 °C, 1 hr): 338.78 µg/mL
- Estimated Amount of Nifurtimox ([3]; 37 °C, 2 hr): 339.74 µg/mL
- Estimated Amount of Nifurtimox ([3]; 37 °C, 3 hr): 338.78 µg/mL
- Estimated Amount of Nifurtimox ([3]; 37 °C, 24 hr): 343.76 µg/mL and 339.56 µg/mL
SMILES: CC1CS(=O)(=O)CCN1/N=C/c1ccc([N+](=O)[O-])o1 (stereo not drawn) [Nifurtimox, 3-methyl-4-(5′-nitrofurfurylidene-amino)-tetrahydro-4H-1,4-thiazine-1,1-dioxide]
- half-life [4]: 2.95 ± 1.19 h
- time to peak [4]: 1 to 2 h
